From article PMC11957373 (Organic & biomolecular chemistry, 2024)

Tests used:
HIV-1 protease = HIV-1 protease (Human immunodeficiency virus type 1 group M subtype B, UniProt P04585); assay: HIV-1 protease inhibition, spectrofluorometric assay; type: biochemical; details: for Ki: HIV-1 protease
HIVLAI = assay: Cell-based antiviral assay in MT-2 human-T-lymphoid cells exposed to HIVLAI; parameters: species or system HIV-1; details: for antiviral activity (in words): MT-2 cells exposed to HIVLAI
[1] = at least 5 data points, standard error less than 7%

In the case of `C=CCC1OC(C)CC1OC(=O)NC(Cc1ccccc1)C(O)CN(CC(C)C)S(=O)(=O)c1ccc(OC)cc1` [4a, (2S,3S,5R)-2-allyl-5-methyltetrahydrofuran-3-yl.((2S,3R)-3-hydroxy-4-((N-isobutyl-4-methoxyphenyl)sulfonamido)-1-phenylbutan-2-yl)carbamate], the Ki (HIV-1 protease; [1]) is reported as 400 pM and the “antiviral activity (in words)” value (HIVLAI) is reported as “did not exhibit any appreciable antiviral activity”.
`COC[C@@H]1O[C@H](C)C[C@@H]1OC(=O)N[C@@H](Cc1ccccc1)[C@H](O)CN(CC(C)C)S(=O)(=O)c1ccc(N)cc1` [4d, (2S,3S,5R)-2-(methoxymethyl)-5-methyltetrahydrofuran-3-yl((2S,3R)-4-((4-amino-N-isobutylphenyl)sulfonamido)-3-hydroxy-1-phenylbutan-2-yl)carbamate] was tested, and the “fold reduction of protease inhibitory activity over compound 4c” value (HIV-1 protease; relative to compound 4c) was “over 300 fold”.
For `COC[C@H]1O[C@@H](C)C[C@H]1OC(=O)N[C@@H](Cc1ccccc1)[C@H](O)CN(CC(C)C)S(=O)(=O)c1ccc(OC)cc1` [4e, (2R,3R,5S)-2-(methoxymethyl)-5-methyltetrahydrofuran-3-yl.((2S,3R)-3-hydroxy-4-((N-isobutyl-4-methoxyphenyl)sulfonamido)-1-phenylbutan-2-yl)carbamate], the “fold reduction of protease inhibitory activity over compound 4c” value (HIV-1 protease; relative to compound 4c) was ~4 fold.
With `COC[C@H]1O[C@H](C)C[C@@H]1OC(=O)N[C@@H](Cc1ccccc1)[C@H](O)CN(CC(C)C)S(=O)(=O)c1ccc(OC)cc1` [4h, (2R,3S,5R)-2-(methoxymethyl)-5-methyltetrahydrofuran-3-yl((2S,3R)-3-hydroxy-4-((N-isobutyl-4-methoxyphenyl)sulfonamido)-1-phenylbutan-2-yl)carbamate] the Ki (HIV-1 protease; value printed in pM) was 49 pM and the “fold improvement of enzyme affinity compared to compound 4c” value (HIV-1 protease; relative to compound 4c) was “over 5 fold”.
With `COc1ccc(S(=O)(=O)N(CC(C)C)C[C@@H](O)[C@H](Cc2ccccc2)NC(=O)O[C@H]2C[C@@H](C)O[C@H]2[C@@H]2CCCO2)cc1` [4k, (2S,2’S,3S,5R)-5-methyloctahydro-[2,2’-bifuran]-3-yl((2S,3R)-3-hydroxy-4-((N-isobutyl-4-methoxyphenyl)sulfonamido)-1-phenylbutan-2-yl)carbamate] the Ki (HIV-1 protease; [1]) was 310 pM and the “antiviral activity (in words)” value (HIVLAI) was “did not exhibit any appreciable antiviral activity”.
In the case of `COc1ccc(S(=O)(=O)N(CC(C)C)C[C@@H](O)[C@H](Cc2ccccc2)NC(=O)O[C@H]2C[C@@H](C)O[C@H]2[C@H]2CCCO2)cc1` [4l, (2S,2’R,3S,5R)-5-methyloctahydro-[2,2’-bifuran]-3-yl((2S,3R)-3-hydroxy-4-((N-isobutyl-4-methoxyphenyl)sulfonamido)-1-phenylbutan-2-yl)carbamate], the Ki (HIV-1 protease; value printed in pM) is reported as 44 pM and the “antiviral activity (in words)” value (HIVLAI) is reported as “did not exhibit any appreciable antiviral activity”.
In the case of `CC(C)CN(C[C@@H](O)[C@H](Cc1ccccc1)NC(=O)O[C@H]1CO[C@H]2OCC[C@H]21)S(=O)(=O)c1ccc(N)cc1` [Darunavir, darunavir, reference compound], the EC50 (HIVLAI; Human immunodeficiency virus 1, MT2) is reported as 1600 pM.
